Data from patent publication US20250230193A1, “CYCLIC COMPOUND HAVING SELECTIVE KRAS INHIBITORY EFFECT ON HRAS AND NRAS” (CHUGAI SEIYAKU KABUSHIKI KAISHA, priority 2022, published 2025).

What was measured:
[1] = target: GDP-bound NRAS wild-type protein (Homo sapiens, UniProt P01111); assay: Binding to NRAS by surface plasmon resonance (SPR), Single Cycle Kinetics; details: KD ratio, GDP-bound NRAS wild-type vs GDP-bound KRAS wild-type, SPR
[2] = target: GDP-bound HRAS wild-type protein (Homo sapiens, UniProt P01112); assay: Binding to HRAS by surface plasmon resonance (SPR), Single Cycle Kinetics; details: KD ratio, GDP-bound HRAS wild-type vs GDP-bound KRAS wild-type, SPR
Sequence of GDP-bound HRAS wild-type protein (P01112 whole entry): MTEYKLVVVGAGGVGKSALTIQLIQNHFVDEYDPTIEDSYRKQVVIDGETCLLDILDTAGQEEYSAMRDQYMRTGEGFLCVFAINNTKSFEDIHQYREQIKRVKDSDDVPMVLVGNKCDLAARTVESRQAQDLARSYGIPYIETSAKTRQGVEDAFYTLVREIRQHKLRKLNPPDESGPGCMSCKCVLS

Sequence of GDP-bound NRAS wild-type protein (P01111 whole entry): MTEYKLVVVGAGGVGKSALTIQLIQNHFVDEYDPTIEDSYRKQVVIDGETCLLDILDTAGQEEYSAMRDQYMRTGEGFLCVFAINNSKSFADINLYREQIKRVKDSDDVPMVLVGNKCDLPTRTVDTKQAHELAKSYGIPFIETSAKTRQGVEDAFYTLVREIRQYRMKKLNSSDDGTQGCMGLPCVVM

| Structure (SMILES) | NRAS/KRAS (ratio of KD value with respect to NRAS to KD value with respect to KRAS) [1] | HRAS/KRAS (ratio of KD value with respect to HRAS to KD value with respect to KRAS) [2] |
| --- | --- | --- |
| CCO[C@@H]1C[C@H]2C(=O)NC3(CCC3)C(=O)N(C)[C@@H](CC(F)F)C(=O)N(C)[C@H](C(=O)N3CCOCC3)CC(=O)N(C)[C@@H](CC(C)C)C(=O)N[C@@H]([C@@H](C)CC)C(=O)N(C)CC(=O)N(C)[C@H]3CCCCCN(C3=O)[C@@H](Cc3ccc(C(F)(F)F)cc3)C(=O)N(C)CC(=O)N[C@@H](CCc3cc(F)c(C(F)(F)F)c(F)c3)C(=O)N2C1 [PP0822] | B (a compound having 3 or more and less than 10 is denoted as B) | B (a compound having 3 or more and less than 10 is denoted as B) |
| CCO[C@@H]1C[C@H]2C(=O)NC3(CCC3)C(=O)N(C)[C@@H](C(C)(C)C)C(=O)N(C)[C@H](C(=O)N3CCOCC3)CC(=O)N(C)[C@@H](CC(C)C)C(=O)N[C@@H]([C@@H](C)CC)C(=O)N(C)CC(=O)N(C)[C@H]3CCCCCN(C3=O)[C@@H](Cc3ccc(C(F)(F)F)cc3)C(=O)N(C)CC(=O)N[C@@H](CCc3cc(F)c(C(F)(F)F)c(F)c3)C(=O)N2C1 [PP0823] | A (a compound having 10 or more and less than 20 is denoted as A) | B (a compound having 3 or more and less than 10 is denoted as B) |
| CCO[C@@H]1C[C@H]2C(=O)NC3(CCC3)C(=O)N(C)[C@@H](C3CCCC3)C(=O)N(C)[C@H](C(=O)N(C)C)CC(=O)N(C)[C@@H](CC)C(=O)N[C@@H]([C@@H](C)CC)C(=O)N(C)CC(=O)N(C)[C@H]3C/C=C\CCN(C3=O)[C@@H](Cc3ccc(C(F)(F)F)cc3)C(=O)N(C)CC(=O)N[C@@H](CCc3cc(F)c(C(F)(F)F)c(F)c3)C(=O)N2C1 [PP0824] | A (a compound having 10 or more and less than 20 is denoted as A) | A (a compound having 10 or more and less than 20 is denoted as A) |
| CCO[C@@H]1C[C@H]2C(=O)NC3(CCC3)C(=O)N(C)[C@@H](C3CCCC3)C(=O)N(C)[C@H](C(=O)N3CCOCC3)CC(=O)N(C)[C@@H](CC(C)C)C(=O)N[C@@H]([C@@H](C)CC)C(=O)N(C)CC(=O)N(C)[C@H]3C/C=C\CCN(C3=O)[C@@H](Cc3ccc(C(F)(F)F)cc3)C(=O)N(C)CC(=O)N[C@@H](CCc3ccc(C(F)(F)F)c(Cl)c3)C(=O)N2C1 [PP0825] | A (a compound having 10 or more and less than 20 is denoted as A) | A (a compound having 10 or more and less than 20 is denoted as A) |
| CCO[C@@H]1C[C@H]2C(=O)NC3(CCC3)C(=O)N(C)[C@@H](C3CCCC3)C(=O)N(C)[C@H](C(=O)N3CCOCC3)CC(=O)N(C)[C@@H](CC(C)C)C(=O)N[C@@H]([C@@H](C)CC)C(=O)N(C)CC(=O)N(C)[C@H]3CC=C(C)CN(C3=O)[C@@H](Cc3ccc(C(F)(F)F)cc3)C(=O)N(C)CC(=O)N[C@@H](CCc3cc(F)c(C(F)(F)F)c(F)c3)C(=O)N2C1 [PP0826] | C (A compound having a KD ratio of 0.1 or more and less than 3 is denoted as C) | B (a compound having 3 or more and less than 10 is denoted as B) |
| CCO[C@@H]1C[C@H]2C(=O)NC3(CCC3)C(=O)N(C)[C@@H](C3CCCC3)C(=O)N(C)[C@H](C(=O)N(C)C)CC(=O)N(C)[C@@H](CC)C(=O)N[C@@H]([C@@H](C)CC)C(=O)N(C)CC(=O)N(C)[C@H]3CC=C(C)CN(C3=O)[C@@H](Cc3ccc(C(F)(F)F)cc3)C(=O)N(C)CC(=O)N[C@@H](CCc3cc(F)c(C(F)(F)F)c(F)c3)C(=O)N2C1 [PP0827] | C (A compound having a KD ratio of 0.1 or more and less than 3 is denoted as C) | C (A compound having a KD ratio of 0.1 or more and less than 3 is denoted as C) |
| CCO[C@@H]1C[C@H]2C(=O)NC3(CC(F)(F)C3)C(=O)N(C)[C@@H](C3CCCC3)C(=O)N(C)[C@H](C(=O)N3CCOCC3)CC(=O)N(C)[C@@H](CC(C)C)C(=O)N[C@@H]([C@@H](C)CC)C(=O)N(C)CC(=O)N(C)[C@H]3CC=C(C)CN(C3=O)[C@@H](Cc3ccc(C(F)(F)F)cc3)C(=O)N(C)CC(=O)N[C@@H](CCc3cc(F)c(C(F)(F)F)c(F)c3)C(=O)N2C1 [PP0828] | C (A compound having a KD ratio of 0.1 or more and less than 3 is denoted as C) | C (A compound having a KD ratio of 0.1 or more and less than 3 is denoted as C) |
| CCO[C@@H]1C[C@H]2C(=O)NC3(CCC3)C(=O)N(C)[C@@H](C3CCCC3)C(=O)N(C)[C@H](C(=O)N3CCOCC3)CC(=O)N(C)[C@@H](CC(C)C)C(=O)N[C@@H]([C@@H](C)CC)C(=O)N(C)CC(=O)N(C)[C@H]3C[C@H]4C[C@H]4CN(C3=O)[C@@H](Cc3ccc(C(F)(F)F)cc3)C(=O)N(C)CC(=O)N[C@@H](CCc3cc(F)c(C(F)(F)F)c(F)c3)C(=O)N2C1 [PP0829] | B (a compound having 3 or more and less than 10 is denoted as B) | C (A compound having a KD ratio of 0.1 or more and less than 3 is denoted as C) |
| CCO[C@@H]1C[C@H]2C(=O)NC3(CCC3)C(=O)N(C)[C@@H](C3CCCC3)C(=O)N(C)[C@H](C(=O)N(C)C)CC(=O)N(C)[C@@H](CC)C(=O)N[C@@H]([C@@H](C)CC)C(=O)N(C)CC(=O)N(C)[C@H]3C[C@H]4C[C@H]4CN(C3=O)[C@@H](Cc3ccc(C(F)(F)F)cc3)C(=O)N(C)CC(=O)N[C@@H](CCc3cc(F)c(C(F)(F)F)c(F)c3)C(=O)N2C1 [PP0830] | C (A compound having a KD ratio of 0.1 or more and less than 3 is denoted as C) | C (A compound having a KD ratio of 0.1 or more and less than 3 is denoted as C) |
| CCO[C@@H]1C[C@H]2C(=O)NC3(CC(F)(F)C3)C(=O)N(C)[C@@H](C3CCCC3)C(=O)N(C)[C@H](C(=O)N3CCOCC3)CC(=O)N(C)[C@@H](CC(C)C)C(=O)N[C@@H]([C@@H](C)CC)C(=O)N(C)CC(=O)N(C)[C@H]3C[C@H]4C[C@H]4CN(C3=O)[C@@H](Cc3ccc(C(F)(F)F)cc3)C(=O)N(C)CC(=O)N[C@@H](CCc3cc(F)c(C(F)(F)F)c(F)c3)C(=O)N2C1 [PP0831] | C (A compound having a KD ratio of 0.1 or more and less than 3 is denoted as C) | C (A compound having a KD ratio of 0.1 or more and less than 3 is denoted as C) |
| CCO[C@@H]1C[C@H]2C(=O)NC3(CCC3)C(=O)N(C)[C@@H](C3CCCC3)C(=O)N(C)[C@H](C(=O)N3CCOCC3)CC(=O)N(C)[C@@H](CC(C)C)C(=O)N[C@@H]([C@@H](C)CC)C(=O)N(C)CC(=O)N(C)[C@H]3CC=CCN(C3=O)[C@@H](Cc3ccc(C(F)(F)F)cc3)C(=O)N(C)CC(=O)N[C@@H](CCc3cc(F)c(C(F)(F)F)c(F)c3)C(=O)N2C1 [PP0832] | C (A compound having a KD ratio of 0.1 or more and less than 3 is denoted as C) | C (A compound having a KD ratio of 0.1 or more and less than 3 is denoted as C) |
| CC[C@H](C)[C@@H]1NC(=O)[C@H](COC)N(C)C(=O)C[C@@H](C(=O)N2CCOCC2)N(C)C(=O)[C@H](C2CCCC2)N(C)C(=O)C2(CCC2)NC(=O)[C@@H]2CC(F)(F)CN2C(=O)[C@H](CCc2cc(F)c(C(F)(F)F)c(F)c2)NC(=O)CN(C)C(=O)[C@H](Cc2ccc(C(F)(F)F)cc2)N2CCCCC[C@@H](C2=O)N(C)C(=O)CN(C)C1=O [PP0834] | A (a compound having 10 or more and less than 20 is denoted as A) | B (a compound having 3 or more and less than 10 is denoted as B) |
| CC[C@H](C)[C@@H]1NC(=O)[C@H](COC)N(C)C(=O)C[C@@H](C(=O)N2CCOCC2)N(C)C(=O)[C@H](C2CCCC2)N(C)C(=O)C2(CCC2)NC(=O)[C@@H]2C[C@H](OC)CN2C(=O)[C@H](CCc2cc(F)c(C(F)(F)F)c(F)c2)NC(=O)CN(C)C(=O)[C@H](Cc2ccc(C(F)(F)F)cc2)N2CCCCC[C@@H](C2=O)N(C)C(=O)CN(C)C1=O [PP0836] | B (a compound having 3 or more and less than 10 is denoted as B) | B (a compound having 3 or more and less than 10 is denoted as B) |
| CC[C@H](C)[C@@H]1NC(=O)[C@H](COC)N(C)C(=O)C[C@@H](C(=O)N2CCOCC2)N(C)C(=O)[C@H](C2CCCC2)N(C)C(=O)C2(CCC2)NC(=O)[C@@H]2C[C@@H](OC)CN2C(=O)[C@H](CCc2cc(F)c(C(F)(F)F)c(F)c2)NC(=O)CN(C)C(=O)[C@H](Cc2ccc(C(F)(F)F)cc2)N2CCCCC[C@@H](C2=O)N(C)C(=O)CN(C)C1=O [PP0837] | B (a compound having 3 or more and less than 10 is denoted as B) | B (a compound having 3 or more and less than 10 is denoted as B) |
| CCCO[C@@H]1C[C@H]2C(=O)NC3(CCC3)C(=O)N(C)[C@@H](C3CCCC3)C(=O)N(C)[C@H](C(=O)N3CCOCC3)CC(=O)N(C)[C@@H](COC)C(=O)N[C@@H]([C@@H](C)CC)C(=O)N(C)CC(=O)N(C)[C@H]3CCCCCN(C3=O)[C@@H](Cc3ccc(C(F)(F)F)cc3)C(=O)N(C)CC(=O)N[C@@H](CCc3cc(F)c(C(F)(F)F)c(F)c3)C(=O)N2C1 [PP0838] | B (a compound having 3 or more and less than 10 is denoted as B) | B (a compound having 3 or more and less than 10 is denoted as B) |
| CC[C@H](C)[C@@H]1NC(=O)[C@H](COC)N(C)C(=O)C[C@@H](C(=O)N2CCOCC2)N(C)C(=O)[C@H](C2CCCC2)N(C)C(=O)C2(CCC2)NC(=O)[C@@H]2C[C@@H](OCC(C)C)CN2C(=O)[C@H](CCc2cc(F)c(C(F)(F)F)c(F)c2)NC(=O)CN(C)C(=O)[C@H](Cc2ccc(C(F)(F)F)cc2)N2CCCCC[C@@H](C2=O)N(C)C(=O)CN(C)C1=O [PP0839] | B (a compound having 3 or more and less than 10 is denoted as B) | B (a compound having 3 or more and less than 10 is denoted as B) |
